Data from patent publication US20240139280A1, “USE OF HIF-1-ALPHA INHIBITORS IN CANCER IMMUNOTHERAPY” (ONCOC4, INC., priority 2021, published 2024).

System: irAE target organs (liver, kidney), spleen
Test: PD-L1 expression and T cell infiltration in normal tissues (liver, kidney, spleen) of E0771 tumor-bearing mice
Type: in vivo, C57BL/6 mice
Experimental: E0771 cells (0.5×10^6) were orthotopically transplanted into C57BL/6 mice (day 0), which were divided into 6 treatment groups: vehicle, echinomycin (LEM), anti-CTLA-4 (9D9), 9D9+echinomycin, 9D9+echinomycin+XMG1.2 (an anti-IFNγ antibody), or 9D9+RMP1-14. Echinomycin (0.25 mg/kg) or mAbs (0.2 mg/mouse/injection) were given on days 6, 8, 10, and 12. On day 14, the mice were euthanized, perfused, and the spleens were dissociated and analyzed by flow cytometry, or stimulated for 4 hours with PMA+ionomycin+GolgiStop prior to intracellular staining for IFNγ. The liver and kidney were processed for immunofluorescence analysis for PD-L1. FIG. 7A. PD-L1 expression in the tumor-bearing mice treated with different therapies. Representative immunofluorescence images shown for kidney (upper) and liver tissues (lower) of mice from indicated treatment groups stained by anti-PD-L1 and DAPI. FIGS. 7B-D. T cell infiltration in the liver and kidney of tumor-bearing mice. Representative immunofluorescence images from mice in the indicated treatment groups after staining with anti-CD3 and DAPI are shown in FIG. 7B for kidney (upper panel) and liver tissues (lower panel). T cell infiltration scores in the kidney (FIG. 7C) and liver (FIG. 7D) are shown as mean±SEM infiltration scores for the kidney (FIG. 7C) and liver tissues (FIG. 7D). T cell infiltration scoring range: 0, normal/none; 1, minimal; 2, mild; 3, moderate; 4, severe. FIG. 7E. Frequency of splenic Tc1 cells among CD8^+ T cells (gated on Singlets/Live_CD45^+/CD3^+/CD8^+CD4^−), expressed as the mean±SEM. FIG. 7F. Frequencies of splenic Th1 cells among CD4^+ T cells (gated on Singlets/Live_CD45^+/CD3^+/CD8^−CD4^+), expressed as the mean±SEM. FIG. 7G. Frequency of splenic T cells (gated on Singlets/Live_CD45^+/CD3^+/CD8^+CD4^−) among total hematopoietic cells (gated on Singlets/Live_CD45^+). Representative data are shown for one of at least two independent experiments. FIG. 7H. CD3 and cleaved-caspase 3 staining in kidney and liver. Representative immunofluorescence images shown for kidney (upper) and liver tissues (lower) of mice that received 9D9 or 9D9+LEM. Caspase 3 positive cells are indicated with arrows. All data is representative of at least two independent experiments. In FIGS. 7C-G, data are presented as the mean±SEM with each dot representing an individual mouse, analyzed by one-way ANOVA with Sidak's posttest.

Structure (SMILES): CSC1SC[C@H]2C(=O)N(C)[C@@H](C(C)C)C(=O)OC[C@@H](NC(=O)c3cnc4ccccc4n3)C(=O)N[C@@H](C)C(=O)N(C)[C@@H]1C(=O)N(C)[C@@H](C(C)C)C(=O)OC[C@@H](NC(=O)c1cnc3ccccc3n1)C(=O)N[C@@H](C)C(=O)N2C (stereo in doubt) [echinomycin, N,N′-(2,4,12,15,17,25-hexamethyl-11,24-bis(1-methylethyl)-27-(methylthio)-3,6,10,13,16,19,23,26-octaoxo-9,22-dioxa-28-thia-2,5,12,15,18,25-hexaazabicyclo(12.12.3)nonacosane-7,20-diyl)bis(2-quinoxalinecarboxamide)]
- T cell infiltration in liver and kidney (E0771 tumor-bearing C57BL/6, anti-CD3 immunofluorescence): did not stimulate increased infiltration
- PD-L1 expression in liver and kidney (immunofluorescence) (E0771 tumor-bearing C57BL/6, echinomycin 0.25 mg/kg, mAbs 0.2 mg/mouse/injection): also induced PD-L1
- PD-L1 expression in normal tissues including liver, kidney, salivary gland and colon (immunocompetent mice): induced PD-L1 expression
- PD-L1 induction in the liver in mice with conditional knockout of Hif1α in T cells (mouse, in vivo): preserved regardless of the mouse genotype
